Measured values taken from ChEMBL document CHEMBL4507291 (2021).

Key:
[1] = molecular target: Dual specificity protein kinase CLK1 (Homo sapiens) (UniProt P49759); assay: CLK1 Kinase screen; conditions: Compound concentration 1.0 uM
[2] = molecular target: MAP kinase-activated protein kinase 3 (Homo sapiens) (UniProt Q16644); assay: MAPKAPK3 Kinase screen; conditions: Compound concentration 1.0 uM
[3] = molecular target: Dual specificity protein kinase CLK2 (Homo sapiens) (UniProt P49760); assay: CLK2 Kinase screen; conditions: Compound concentration 1.0 uM
[4] = molecular target: T1, Serine/threonine-protein kinase Nek9 (Homo sapiens) (UniProt Q8TD19); assay: NEK9 Kinase screen; conditions: Compound concentration 1.0 uM
T1 sequence (whole entry): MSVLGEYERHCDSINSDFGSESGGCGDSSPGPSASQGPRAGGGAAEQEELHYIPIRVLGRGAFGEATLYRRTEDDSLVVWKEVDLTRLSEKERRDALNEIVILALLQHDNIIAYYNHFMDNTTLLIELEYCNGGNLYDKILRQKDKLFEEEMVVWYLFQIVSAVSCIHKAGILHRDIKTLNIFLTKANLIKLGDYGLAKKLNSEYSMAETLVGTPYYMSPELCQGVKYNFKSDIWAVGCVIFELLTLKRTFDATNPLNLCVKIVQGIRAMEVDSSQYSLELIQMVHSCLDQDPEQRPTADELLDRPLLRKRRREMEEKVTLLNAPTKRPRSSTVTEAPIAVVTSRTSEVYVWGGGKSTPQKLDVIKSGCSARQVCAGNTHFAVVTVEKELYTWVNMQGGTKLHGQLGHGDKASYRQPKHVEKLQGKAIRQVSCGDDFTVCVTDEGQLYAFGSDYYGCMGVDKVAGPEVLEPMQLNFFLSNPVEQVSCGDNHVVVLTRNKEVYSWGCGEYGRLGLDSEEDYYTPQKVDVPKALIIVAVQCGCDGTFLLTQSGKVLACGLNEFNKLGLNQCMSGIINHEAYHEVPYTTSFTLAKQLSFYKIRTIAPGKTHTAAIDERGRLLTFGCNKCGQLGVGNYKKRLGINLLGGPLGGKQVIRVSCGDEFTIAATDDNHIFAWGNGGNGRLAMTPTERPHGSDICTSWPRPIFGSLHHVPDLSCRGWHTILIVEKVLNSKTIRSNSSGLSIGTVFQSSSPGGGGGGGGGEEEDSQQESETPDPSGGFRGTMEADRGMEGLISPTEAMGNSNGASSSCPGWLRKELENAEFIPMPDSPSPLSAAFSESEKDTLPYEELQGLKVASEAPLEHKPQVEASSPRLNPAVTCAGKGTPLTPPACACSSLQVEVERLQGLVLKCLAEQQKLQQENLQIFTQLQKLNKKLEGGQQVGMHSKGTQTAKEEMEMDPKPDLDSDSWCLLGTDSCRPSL

[5] = molecular target: Mitogen-activated protein kinase 1 (Homo sapiens) (UniProt P28482); assay: MAPK1 (ERK2) Kinase screen; conditions: Compound concentration 1.0 uM
[6] = molecular target: T2, Rhodopsin kinase GRK7 (Homo sapiens) (UniProt Q8WTQ7); assay: GRK7 Kinase screen; conditions: Compound concentration 1.0 uM
T2 sequence (whole entry): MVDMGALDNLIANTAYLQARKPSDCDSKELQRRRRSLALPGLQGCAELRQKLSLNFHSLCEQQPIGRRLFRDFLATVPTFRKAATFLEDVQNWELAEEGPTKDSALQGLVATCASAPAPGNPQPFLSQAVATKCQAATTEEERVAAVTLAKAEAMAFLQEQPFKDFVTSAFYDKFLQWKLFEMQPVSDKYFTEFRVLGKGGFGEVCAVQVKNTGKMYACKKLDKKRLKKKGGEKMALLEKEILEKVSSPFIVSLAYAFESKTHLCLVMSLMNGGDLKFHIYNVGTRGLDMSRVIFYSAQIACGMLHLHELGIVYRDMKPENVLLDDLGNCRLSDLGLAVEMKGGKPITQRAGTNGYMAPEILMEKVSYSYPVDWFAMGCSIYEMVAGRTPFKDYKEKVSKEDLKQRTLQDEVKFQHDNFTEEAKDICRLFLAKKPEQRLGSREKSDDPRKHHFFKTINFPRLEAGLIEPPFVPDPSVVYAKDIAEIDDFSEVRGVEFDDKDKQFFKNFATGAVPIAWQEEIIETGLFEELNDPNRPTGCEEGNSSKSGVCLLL

[7] = tested on: Dual specificity mitogen-activated protein kinase kinase 6 (Homo sapiens), P52564 [S207E,T211E]; assay: MAP2K6 (MKK6) S207E T211E Kinase screen; conditions: Compound concentration 1.0 uM
[8] = molecular target: Receptor-interacting serine/threonine-protein kinase 2 (Homo sapiens) (UniProt O43353); assay: RIPK2 Kinase screen; conditions: Compound concentration 1.0 uM
[9] = molecular target: Bone morphogenetic protein receptor type-1A (Homo sapiens) (UniProt P36894); assay: BMPR1A (ALK3) Kinase screen; conditions: Compound concentration 1.0 uM
[10] = molecular target: Ribosomal protein S6 kinase beta-1 (Homo sapiens) (UniProt P23443); assay: RPS6KB1 (p70S6K) Kinase screen; conditions: Compound concentration 1.0 uM
[11] = molecular target: T3, Alpha-1A adrenergic receptor (Homo sapiens) (UniProt P35348); conditions: Rattus norvegicus; Compound concentration 10.0 uM
T3 sequence (whole entry): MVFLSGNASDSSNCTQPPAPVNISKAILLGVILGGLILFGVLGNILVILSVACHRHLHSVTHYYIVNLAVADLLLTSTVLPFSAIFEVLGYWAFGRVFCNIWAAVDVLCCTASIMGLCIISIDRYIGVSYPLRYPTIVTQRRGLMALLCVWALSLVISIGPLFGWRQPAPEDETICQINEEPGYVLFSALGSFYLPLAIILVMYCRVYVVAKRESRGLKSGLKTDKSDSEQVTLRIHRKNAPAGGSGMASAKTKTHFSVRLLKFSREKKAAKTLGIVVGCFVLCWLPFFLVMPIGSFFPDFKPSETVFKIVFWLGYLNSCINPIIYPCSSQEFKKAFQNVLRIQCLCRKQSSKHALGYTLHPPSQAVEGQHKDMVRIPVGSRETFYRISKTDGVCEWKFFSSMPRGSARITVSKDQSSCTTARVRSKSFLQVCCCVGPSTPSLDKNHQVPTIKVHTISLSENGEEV

[12] = molecular target: Aurora kinase B (Homo sapiens) (UniProt Q96GD4); assay: AURKB (Aurora B) Kinase screen; conditions: Compound concentration 1.0 uM
[13] = molecular target: DNA-dependent protein kinase catalytic subunit (Homo sapiens) (UniProt P78527); assay: DNA-PK Kinase screen; conditions: Compound concentration 1.0 uM

Measured: inhibition

Sequence of Ribosomal protein S6 kinase beta-1 (Homo sapiens) (P23443 whole entry, looked up): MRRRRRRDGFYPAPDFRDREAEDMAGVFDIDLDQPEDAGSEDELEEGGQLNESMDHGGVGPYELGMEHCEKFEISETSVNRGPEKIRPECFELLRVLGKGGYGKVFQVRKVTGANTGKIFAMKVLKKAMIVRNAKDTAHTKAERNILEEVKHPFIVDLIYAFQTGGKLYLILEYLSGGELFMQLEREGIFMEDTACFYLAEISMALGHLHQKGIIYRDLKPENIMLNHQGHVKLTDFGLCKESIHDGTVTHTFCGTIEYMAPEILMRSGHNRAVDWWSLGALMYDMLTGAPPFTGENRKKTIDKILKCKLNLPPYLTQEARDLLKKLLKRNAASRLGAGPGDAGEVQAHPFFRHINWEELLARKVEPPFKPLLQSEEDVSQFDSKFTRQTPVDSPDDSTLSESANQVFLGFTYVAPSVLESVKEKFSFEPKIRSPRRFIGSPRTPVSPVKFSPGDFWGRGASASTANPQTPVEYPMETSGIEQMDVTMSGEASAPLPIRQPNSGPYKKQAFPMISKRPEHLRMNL
Sequence of Mitogen-activated protein kinase 1 (Homo sapiens) (P28482 whole entry): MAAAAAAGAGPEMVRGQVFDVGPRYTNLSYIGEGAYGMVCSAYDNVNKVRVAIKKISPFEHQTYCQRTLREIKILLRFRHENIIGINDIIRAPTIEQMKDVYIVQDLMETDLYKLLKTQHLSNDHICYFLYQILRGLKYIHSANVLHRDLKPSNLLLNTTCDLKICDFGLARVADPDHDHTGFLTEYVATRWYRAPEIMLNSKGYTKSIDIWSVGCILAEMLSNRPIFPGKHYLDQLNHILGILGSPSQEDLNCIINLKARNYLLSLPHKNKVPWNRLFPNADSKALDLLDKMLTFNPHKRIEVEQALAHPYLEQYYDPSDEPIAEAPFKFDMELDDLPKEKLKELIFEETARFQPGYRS
Sequence of Dual specificity mitogen-activated protein kinase kinase 6 (Homo sapiens), P52564 [S207E,T211E] (P52564 whole entry S207E/T211E): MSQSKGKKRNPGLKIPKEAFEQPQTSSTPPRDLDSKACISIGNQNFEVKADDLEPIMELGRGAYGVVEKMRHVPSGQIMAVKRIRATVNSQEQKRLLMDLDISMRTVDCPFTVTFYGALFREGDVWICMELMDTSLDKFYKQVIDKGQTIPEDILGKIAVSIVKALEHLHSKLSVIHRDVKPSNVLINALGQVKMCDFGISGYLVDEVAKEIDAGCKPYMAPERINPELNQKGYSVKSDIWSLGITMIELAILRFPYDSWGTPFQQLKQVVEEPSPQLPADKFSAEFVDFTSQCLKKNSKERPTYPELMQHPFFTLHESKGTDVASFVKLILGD
Sequence of Receptor-interacting serine/threonine-protein kinase 2 (Homo sapiens) (O43353 whole entry): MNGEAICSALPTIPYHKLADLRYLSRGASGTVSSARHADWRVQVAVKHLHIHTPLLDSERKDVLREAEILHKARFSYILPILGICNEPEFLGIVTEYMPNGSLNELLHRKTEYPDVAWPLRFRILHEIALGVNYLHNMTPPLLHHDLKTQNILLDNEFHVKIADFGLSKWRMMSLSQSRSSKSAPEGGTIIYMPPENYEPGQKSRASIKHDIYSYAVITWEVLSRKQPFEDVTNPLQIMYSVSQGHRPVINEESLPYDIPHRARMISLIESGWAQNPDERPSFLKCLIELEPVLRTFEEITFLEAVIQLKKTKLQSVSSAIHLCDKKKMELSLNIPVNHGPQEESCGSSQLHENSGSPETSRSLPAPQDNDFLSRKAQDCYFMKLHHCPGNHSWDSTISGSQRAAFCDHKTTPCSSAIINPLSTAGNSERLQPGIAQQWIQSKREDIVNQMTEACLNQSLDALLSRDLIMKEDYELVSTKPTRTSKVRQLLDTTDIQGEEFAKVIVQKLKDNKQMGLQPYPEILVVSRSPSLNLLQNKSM
Sequence of Dual specificity protein kinase CLK1 (Homo sapiens) (P49759 whole entry, looked up): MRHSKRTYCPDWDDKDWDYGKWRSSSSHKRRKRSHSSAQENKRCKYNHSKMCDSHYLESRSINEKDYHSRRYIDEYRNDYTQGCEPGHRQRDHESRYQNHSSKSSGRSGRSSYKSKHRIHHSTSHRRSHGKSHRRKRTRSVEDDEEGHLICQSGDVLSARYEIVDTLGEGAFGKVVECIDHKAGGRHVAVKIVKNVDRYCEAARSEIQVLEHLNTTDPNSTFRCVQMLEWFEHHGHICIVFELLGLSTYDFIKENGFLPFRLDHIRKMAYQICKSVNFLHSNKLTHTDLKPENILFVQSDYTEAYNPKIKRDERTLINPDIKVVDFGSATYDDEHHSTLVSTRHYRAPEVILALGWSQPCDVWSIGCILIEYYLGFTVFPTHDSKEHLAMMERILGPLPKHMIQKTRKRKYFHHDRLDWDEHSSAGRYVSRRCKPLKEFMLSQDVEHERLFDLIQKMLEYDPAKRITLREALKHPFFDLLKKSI
Sequence of Aurora kinase B (Homo sapiens) (Q96GD4 whole entry): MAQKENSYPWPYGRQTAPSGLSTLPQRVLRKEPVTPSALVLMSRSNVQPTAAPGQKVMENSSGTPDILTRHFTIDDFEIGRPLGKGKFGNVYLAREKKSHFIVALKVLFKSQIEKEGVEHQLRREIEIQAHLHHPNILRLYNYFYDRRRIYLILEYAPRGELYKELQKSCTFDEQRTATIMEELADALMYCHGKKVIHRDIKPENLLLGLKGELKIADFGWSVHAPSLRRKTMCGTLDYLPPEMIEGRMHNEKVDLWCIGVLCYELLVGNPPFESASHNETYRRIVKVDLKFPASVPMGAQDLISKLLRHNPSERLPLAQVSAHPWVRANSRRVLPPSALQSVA
Sequence of MAP kinase-activated protein kinase 3 (Homo sapiens) (Q16644 whole entry, looked up): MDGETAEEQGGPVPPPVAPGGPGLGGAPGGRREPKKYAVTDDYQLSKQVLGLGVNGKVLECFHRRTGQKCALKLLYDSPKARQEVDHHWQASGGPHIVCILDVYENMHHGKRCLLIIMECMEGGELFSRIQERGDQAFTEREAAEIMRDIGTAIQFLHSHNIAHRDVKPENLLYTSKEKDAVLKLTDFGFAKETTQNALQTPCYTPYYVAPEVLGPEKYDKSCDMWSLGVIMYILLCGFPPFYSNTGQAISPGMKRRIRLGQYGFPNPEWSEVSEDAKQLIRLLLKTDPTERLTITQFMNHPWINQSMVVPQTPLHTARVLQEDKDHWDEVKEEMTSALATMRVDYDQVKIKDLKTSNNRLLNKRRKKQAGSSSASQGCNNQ
Sequence of Bone morphogenetic protein receptor type-1A (Homo sapiens) (P36894 whole entry): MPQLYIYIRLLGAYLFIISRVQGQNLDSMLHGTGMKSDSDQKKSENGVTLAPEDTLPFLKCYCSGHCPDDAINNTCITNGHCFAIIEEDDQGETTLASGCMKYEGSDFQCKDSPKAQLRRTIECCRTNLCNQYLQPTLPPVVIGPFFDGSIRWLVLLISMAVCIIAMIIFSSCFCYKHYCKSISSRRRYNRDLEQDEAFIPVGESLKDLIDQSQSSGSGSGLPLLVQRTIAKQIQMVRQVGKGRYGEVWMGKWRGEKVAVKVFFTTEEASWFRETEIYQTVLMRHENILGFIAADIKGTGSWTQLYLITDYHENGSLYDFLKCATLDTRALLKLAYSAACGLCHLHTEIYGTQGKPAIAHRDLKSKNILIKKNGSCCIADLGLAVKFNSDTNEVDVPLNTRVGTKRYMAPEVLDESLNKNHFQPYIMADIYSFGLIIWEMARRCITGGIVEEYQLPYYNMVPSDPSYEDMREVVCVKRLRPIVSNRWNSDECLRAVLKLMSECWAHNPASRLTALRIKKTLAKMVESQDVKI
Sequence of Dual specificity protein kinase CLK2 (Homo sapiens) (P49760 whole entry, looked up): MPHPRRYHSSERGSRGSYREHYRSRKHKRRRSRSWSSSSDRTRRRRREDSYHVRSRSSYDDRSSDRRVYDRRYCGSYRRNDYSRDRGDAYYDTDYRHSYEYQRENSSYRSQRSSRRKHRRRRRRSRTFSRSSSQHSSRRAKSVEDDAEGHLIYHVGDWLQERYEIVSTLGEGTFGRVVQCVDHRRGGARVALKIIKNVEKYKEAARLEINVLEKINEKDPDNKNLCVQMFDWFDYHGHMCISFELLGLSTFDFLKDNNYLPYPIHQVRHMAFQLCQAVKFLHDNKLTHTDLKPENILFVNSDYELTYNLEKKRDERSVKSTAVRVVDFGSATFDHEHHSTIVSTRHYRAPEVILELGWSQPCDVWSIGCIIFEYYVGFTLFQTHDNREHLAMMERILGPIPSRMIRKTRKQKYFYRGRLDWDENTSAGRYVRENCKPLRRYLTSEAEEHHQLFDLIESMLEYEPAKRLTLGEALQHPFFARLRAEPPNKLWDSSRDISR

C[C@@H]1CN(c2cc(-c3n[nH]c4ccc(OC5(C)CC5)cc34)ncn2)C[C@H](C)O1 [MLi-2]
inactive: [1] 15.7% | [2] 3.73% | [3] 55% | [4] -0.999% | [5] -3.99% | [6] 4.4% | [7] -1.97% | [8] -0.0326% | [9] 0.759% | [10] 5.26% | [11] 9% | [12] 16.2% | [13] 21.6%
